According to ChEMBL document CHEMBL3885881, “DrugMatrix”:

Species on record: Rattus norvegicus
Experiment: DrugMatrix - Regimen: Daily Repeat
Assay type: toxicity, organism-based, Sprague-Dawley
Parameters: regimen Daily Repeat, gender Male, age 6-8 weeks
Details: in vivo, po, 1500 mg/kg, route oral GAVAGE, dose level High, vehicle .5 % CMC; for ABSOLUTE BASOPHIL / ABSOLUTE EOSINOPHIL / ABSOLUTE LYMPHOCYTE / ABSOLUTE MONOCYTE / ABSOLUTE SEGMENTED NEUTROPHIL / BASOPHIL / EOSINOPHIL / ERYTHROCYTE COUNT / HEMATOCRIT / HEMOGLOBIN / LEUKOCYTE COUNT / LYMPHOCYTE / MEAN CORPUSCULAR HEMOGLOBIN / MEAN CORPUSCULAR HEMOGLOBIN CONCENTRATION / MEAN CORPUSCULAR VOLUME / MONOCYTE / NEUTROPHIL / NUCLEATED RED BLOOD CELLS / PLATELET COUNT: tissue Blood; for ALANINE AMINOTRANSFERASE / ALBUMIN / ALKALINE PHOSPHATASE / ASPARTATE AMINOTRANSFERASE / BLOOD UREA NITROGEN / CARBON DIOXIDE / CHLORIDE / CHOLESTEROL / CREATINE PHOSPHOKINASE / CREATININE / GLUCOSE / LACTATE DEHYDROGENASE / LIPASE / PHOSPHORUS / POTASSIUM / SODIUM / TOTAL BILIRUBIN / TOTAL PROTEIN / URIC ACID: tissue Plasma

SMILES: Nc1nc2c(c(=O)[nH]1)N(C=O)C(CNc1ccc(C(=O)N[C@@H](CCC(=O)O)C(=O)O)cc1)CN2 (stereo partly specified) [LEUCOVORIN]
- ABSOLUTE BASOPHIL (72 h, time 3 day): 0 CELLS/uL
- ABSOLUTE EOSINOPHIL (72 h, time 3 day): 0 CELLS/uL
- ABSOLUTE LYMPHOCYTE (72 h, time 3 day): 14453.33 CELLS/uL
- ABSOLUTE MONOCYTE (72 h, time 3 day): 60 CELLS/uL
- ABSOLUTE SEGMENTED NEUTROPHIL (72 h, time 3 day): 2253.33 CELLS/uL
- BASOPHIL (72 h, time 3 day): 0%
- EOSINOPHIL (72 h, time 3 day): 0%
- ERYTHROCYTE COUNT (72 h, time 3 day): 5.28 x10E6/uL
- HEMATOCRIT (72 h, time 3 day): 35.03%
- HEMOGLOBIN (72 h, time 3 day): 13.77 G/DL
- LEUKOCYTE COUNT (72 h, time 3 day): 16.77 x10E3/uL
- LYMPHOCYTE (72 h, time 3 day): 86.33%
- MEAN CORPUSCULAR HEMOGLOBIN (72 h, time 3 day): 26.07 pg
- MEAN CORPUSCULAR HEMOGLOBIN CONCENTRATION (72 h, time 3 day): 39.33 G/DL
- MEAN CORPUSCULAR VOLUME (72 h, time 3 day): 66.33 fL
- MONOCYTE (72 h, time 3 day): 0.33%
- NEUTROPHIL (72 h, time 3 day): 13.33%
- NUCLEATED RED BLOOD CELLS (72 h, time 3 day): 0 /100WBC
- PLATELET COUNT (72 h, time 3 day): 1212 x10E3/uL
- ALANINE AMINOTRANSFERASE (72 h, time 3 day): 44.33 u/L
- ALBUMIN (72 h, time 3 day): 4.3 G/DL
- ALKALINE PHOSPHATASE (72 h, time 3 day): 372.67 u/L
- ASPARTATE AMINOTRANSFERASE (72 h, time 3 day): 77.67 u/L
- BLOOD UREA NITROGEN (72 h, time 3 day): 11.33 mg/dL
- CARBON DIOXIDE (72 h, time 3 day): 32 mmol/L
- CHLORIDE (72 h, time 3 day): 102 MEQ/L
- CHOLESTEROL (72 h, time 3 day): 68.33 mg/dL
- CREATINE PHOSPHOKINASE (72 h, time 3 day): 183.67 u/L
- CREATININE (72 h, time 3 day): 0.15 mg/dL
- GLUCOSE (72 h, time 3 day): 156 mg/dL
- LACTATE DEHYDROGENASE (72 h, time 3 day): 116 u/L
- LIPASE (72 h, time 3 day): 8.67 u/L
- PHOSPHORUS (72 h, time 3 day): 13.4 mg/dL
- POTASSIUM (72 h, time 3 day): 6.98 MEQ/L
- SODIUM (72 h, time 3 day): 146.03 MEQ/L
- TOTAL BILIRUBIN (72 h, time 3 day): 0.17 mg/dL
- TOTAL PROTEIN (72 h, time 3 day): 6 G/DL
- URIC ACID (72 h, time 3 day): 1.83 mg/dL
- ABSOLUTE BASOPHIL (120 h, time 5 day): 0 CELLS/uL
- ABSOLUTE EOSINOPHIL (120 h, time 5 day): 46.33 CELLS/uL
- ABSOLUTE LYMPHOCYTE (120 h, time 5 day): 14356 CELLS/uL
- ABSOLUTE MONOCYTE (120 h, time 5 day): 200.33 CELLS/uL
- ABSOLUTE SEGMENTED NEUTROPHIL (120 h, time 5 day): 930.67 CELLS/uL
- BASOPHIL (120 h, time 5 day): 0%
- EOSINOPHIL (120 h, time 5 day): 0.33%
- ERYTHROCYTE COUNT (120 h, time 5 day): 5.73 x10E6/uL
- HEMATOCRIT (120 h, time 5 day): 35.37%
- HEMOGLOBIN (120 h, time 5 day): 14.17 G/DL
- LEUKOCYTE COUNT (120 h, time 5 day): 15.53 x10E3/uL
- LYMPHOCYTE (120 h, time 5 day): 92.33%
- MEAN CORPUSCULAR HEMOGLOBIN (120 h, time 5 day): 24.8 pg
- MEAN CORPUSCULAR HEMOGLOBIN CONCENTRATION (120 h, time 5 day): 40.07 G/DL
- MEAN CORPUSCULAR VOLUME (120 h, time 5 day): 61.77 fL
- MONOCYTE (120 h, time 5 day): 1.33%
- NEUTROPHIL (120 h, time 5 day): 6%
- NUCLEATED RED BLOOD CELLS (120 h, time 5 day): 0 /100WBC
- PLATELET COUNT (120 h, time 5 day): 1112.33 x10E3/uL
- ALANINE AMINOTRANSFERASE (120 h, time 5 day): 56.67 u/L
- ALBUMIN (120 h, time 5 day): 4.3 G/DL
- ALKALINE PHOSPHATASE (120 h, time 5 day): 387 u/L
- ASPARTATE AMINOTRANSFERASE (120 h, time 5 day): 87.33 u/L
- BLOOD UREA NITROGEN (120 h, time 5 day): 16.33 mg/dL
- CARBON DIOXIDE (120 h, time 5 day): 36 mmol/L
- CHLORIDE (120 h, time 5 day): 99.67 MEQ/L
- CHOLESTEROL (120 h, time 5 day): 57.33 mg/dL
- CREATINE PHOSPHOKINASE (120 h, time 5 day): 288.67 u/L
- CREATININE (120 h, time 5 day): 0.2 mg/dL
- GLUCOSE (120 h, time 5 day): 147 mg/dL
- LACTATE DEHYDROGENASE (120 h, time 5 day): 263.67 u/L
- LIPASE (120 h, time 5 day): 9 u/L
- PHOSPHORUS (120 h, time 5 day): 12.9 mg/dL
- POTASSIUM (120 h, time 5 day): 6.55 MEQ/L
- SODIUM (120 h, time 5 day): 145.83 MEQ/L
- TOTAL BILIRUBIN (120 h, time 5 day): 0.2 mg/dL
- TOTAL PROTEIN (120 h, time 5 day): 6.13 G/DL
- URIC ACID (120 h, time 5 day): 1.37 mg/dL
